Source: BindingDB's records for doi:10.1021/jm401292m (Mcgill University, 2014)

Experiment: Antagonist activity at OXE receptor (unknown origin) expressed in neutrophils assessed as inhibition of 5-oxo-ETE-induced cell migration after 2 hrs by hematoxylin/chromotrope 2R staining-based microscopic analysis

SMILES: CCCCCCc1c(C(=O)CC(C)CC(=O)O)c2cc(Cl)ccc2n1C (stereo unspecified)
- IC50: 454 nM
